According to patent US11890287B2, “Therapeutic compounds and compositions for treating social disorders and substance use disorders” (Kinoxis Therapeutics Pty Ltd, priority 2015, dated 2024):
Several values for one entry are separate records, joined by “and”; a condition that tells them apart may be missing. Equal entries are not always repeated.

Experiments:
HEK-293 cells = assay: Cell viability (Cell Titer Blue); assay type: cell-based; settings: 48 hours; for Viability: mean ± SD
Procedure: No apparent cytotoxicity of SOC-1 has been seen in vitro or toxicity in vivo. In a test, SH-SY5Y neuroblastoma cells and HEK-293 cells (4×10^4 cells per well) were exposed to OT or SOC-1 (0.01-10 μM) for 48 hours, with daily media changes. Viability of cells was assessed after a 4 hour exposure to Cell Titer Blue (Promega).

Sprague Dawley rats = assay: Acute toxicity, single intravenous bolus dose of 50 mg/kg, one week dose range finding study; assay type: in vivo
Procedure: The acute toxicity of SOC-1 test items was assessed in Sprague Dawley rats following intravenous administration of a single bolus dose of 50 mg/kg. A total of n=3 adult female rats were treated and then observed for 7 days prior to termination on Study Day 8 without necropsy.
The design of this acute single dose toxicity study in rats was adapted from OECD Guideline for Testing of Chemicals No. 420 Acute Oral Toxicity—Fixed Dose Procedure’ 2001 (3) and the test facility Standard Operating Procedure SP_T002 ‘Dose Range Finding Study in Rodents’. The study procedures were conducted as outlined below and according to related test facility Standard Operating Procedures.
Briefly, on completion of the acclimation period the study was commenced with administration of the treatment on Study Day 1. […] Body weights were also collected daily. On Study Day 8 the surviving animals were culled without necropsy.
The 5 mg/mL test item treatments were administered as a bolus intravenous injection in a dose volume of 10 mL/kg on Study Day 1 with restraint on conscious animals.
Morbidity and mortality observations were recorded daily during the acclimation period and on Day 8, and twice daily from Day 1 through Day 7.
Clinical observations were conducted at least once during the acclimation period. Clinical observations were conducted at least once daily from Day 1 up to and including the day prior to termination. On the day of treatment the animals were monitored continuously for the first 30 minutes post-treatment with formal observations made at 30 minutes, 1 hour and 4 hours post-treatment.
The clinical observations included examination of animals for changes in skin and fur, eyes and mucous membranes, respiratory and circulatory function, gait and posture, behaviour, tremors or convulsions and any other abnormal findings.
The clinical observations also included daily examination of the tail for any injection site reaction (for example, erythema or oedema).
Body weight was recorded once during the acclimation period and daily from the time of treatment on Day 1 to Day 8.

Structure (SMILES): Cl.Cn1ncc2c1Nc1ccccc1NC2 [SOC-1]
- Viability (HEK-293 cells; 0.01 μM): 102.6 ± 2.1 percentage of vehicle viability
- Viability (HEK-293 cells; 0.1 μM): 102.1 ± 3.2 percentage of vehicle viability
- Viability (HEK-293 cells; 1 μM): 102.5 ± 3.6 percentage of vehicle viability
- Viability (HEK-293 cells; 10 μM): 103.2 ± 1.2 percentage of vehicle viability
- differences in viability (HEK-293 cells; 0.01-10 μM): No significant differences in viability
- body weight findings (Sprague Dawley rats; 50 mg/kg IV): no body weight findings that were considered treatment related
- clinical findings post-dose on Study Day 1 (Sprague Dawley rats; 50 mg/kg IV): mild piloerection and reduced activity levels
- injection site reactions (Sprague Dawley rats; 50 mg/kg IV): no findings of injection site reactions
- morbidity and mortality (Sprague Dawley rats; 50 mg/kg IV): no unscheduled deaths or findings of morbidity
- time to resolution of clinical findings post-dose (Sprague Dawley rats; 50 mg/kg IV): ≤ 4 h
- tolerability (Sprague Dawley rats; 50 mg/kg IV): tolerated
- vocalisation and flinch reactions at the time of dosing (Sprague Dawley rats; 50 mg/kg IV in Hartman's solution): not associated with similar reactions
- Body Weight, mean ± SD (Sprague Dawley rats; 50 mg/kg IV, Study Day 1): 224.30 ± 7.45 g
- Body weight, individual rats (Sprague Dawley rats; 50 mg/kg IV, Study Day 1): 228.4 grams and 215.7 grams and 228.8 grams
- Body Weight, mean ± SD (Sprague Dawley rats; 50 mg/kg IV, Study Day 2): 223.07 ± 4.37 g
- Body weight, individual rats (Sprague Dawley rats; 50 mg/kg IV, Study Day 2): 220.9 grams and 220.2 grams and 228.1 grams
- Body Weight, mean ± SD (Sprague Dawley rats; 50 mg/kg IV, Study Day 3): 226.87 ± 4.33 g
- Body weight, individual rats (Sprague Dawley rats; 50 mg/kg IV, Study Day 3): 225.1 grams and 223.7 grams and 231.8 grams
- Body Weight, mean ± SD (Sprague Dawley rats; 50 mg/kg IV, Study Day 4): 223.03 ± 5.34 g
- Body weight, individual rats (Sprague Dawley rats; 50 mg/kg IV, Study Day 4): 229.2 grams and 220.1 grams and 219.8 grams
- Body Weight, mean ± SD (Sprague Dawley rats; 50 mg/kg IV, Study Day 5): 222.77 ± 4.75 g
- Body weight, individual rats (Sprague Dawley rats; 50 mg/kg IV, Study Day 5): 219.0 grams and 221.2 grams and 228.1 grams
- Body Weight, mean ± SD (Sprague Dawley rats; 50 mg/kg IV, Study Day 6): 223.80 ± 3.70 g
- Body weight, individual rats (Sprague Dawley rats; 50 mg/kg IV, Study Day 6): 220.7 grams and 222.8 grams and 227.9 grams
- Body Weight, mean ± SD (Sprague Dawley rats; 50 mg/kg IV, Study Day 7): 226.60 ± 2.57 g
- Body weight, individual rats (Sprague Dawley rats; 50 mg/kg IV, Study Day 7): 225.7 grams and 224.6 grams and 229.5 grams
- Body Weight, mean ± SD (Sprague Dawley rats; 50 mg/kg IV, Study Day 8): 228.03 ± 3.81 g
- Body weight, individual rats (Sprague Dawley rats; 50 mg/kg IV, Study Day 8): 229.1 grams and 223.8 grams and 231.2 grams
- Hunched posture or gait- mild (incidence) (Sprague Dawley rats; 50 mg/kg IV, n 3): 1
- No abnormalities detected: (incidence) (Sprague Dawley rats; 50 mg/kg IV, n 3): 0
- Piloerection- mild (incidence) (Sprague Dawley rats; 50 mg/kg IV, n 3): 1
- Reduced activity (incidence) (Sprague Dawley rats; 50 mg/kg IV, n 3): 3
